According to ChEMBL document CHEMBL1139021, “Synthesis of Tic-D-Phe Psi[CH2-CH2] isostere and its use in the development of melanocortin receptor agonists” (Bioorg Med Chem Lett, 2006):
Where a SMILES comes first, the peptide text is derived from it. [ ]: non-standard residue; d: D form. 2Nal = N[C@@H](Cc1ccc2ccccc2c1)C(=O)O

Legend:
Melanocortin receptor 4 [1] = target: T1, Melanocortin receptor 4 (Homo sapiens, UniProt P32245); assay: Agonist potency at MC4 receptor; format: functional
Melanocortin receptor 3 = Melanocortin receptor 3 (Homo sapiens, UniProt P41968); assay: Binding affinity to MC3 receptor
Chain of Melanocortin receptor 3 (P41968 whole entry): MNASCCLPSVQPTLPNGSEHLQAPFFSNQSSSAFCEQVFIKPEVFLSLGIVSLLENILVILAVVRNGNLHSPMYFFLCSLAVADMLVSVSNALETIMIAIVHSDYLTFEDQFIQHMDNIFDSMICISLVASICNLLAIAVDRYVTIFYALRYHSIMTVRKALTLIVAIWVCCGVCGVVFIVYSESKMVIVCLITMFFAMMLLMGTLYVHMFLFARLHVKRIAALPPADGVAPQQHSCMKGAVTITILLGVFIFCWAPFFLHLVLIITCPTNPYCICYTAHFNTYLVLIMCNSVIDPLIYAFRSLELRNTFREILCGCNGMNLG

[2] = target: Melanocyte-stimulating hormone receptor (Homo sapiens, UniProt Q01726); assay: Binding affinity to MC1 receptor
Chain of Melanocyte-stimulating hormone receptor (Q01726 whole entry): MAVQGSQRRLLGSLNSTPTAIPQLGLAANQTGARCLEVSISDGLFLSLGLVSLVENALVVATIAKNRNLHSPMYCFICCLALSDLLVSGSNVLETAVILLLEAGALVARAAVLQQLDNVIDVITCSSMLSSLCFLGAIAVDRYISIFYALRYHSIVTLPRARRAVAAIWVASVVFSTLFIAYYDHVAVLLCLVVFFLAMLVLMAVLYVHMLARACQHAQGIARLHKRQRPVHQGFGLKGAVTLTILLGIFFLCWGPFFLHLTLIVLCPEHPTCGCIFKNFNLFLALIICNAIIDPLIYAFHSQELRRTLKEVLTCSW

Melanocortin receptor 4 [3] = target: T1, Melanocortin receptor 4; assay: Binding affinity to MC4 receptor

T1 sequence (P32245 whole entry): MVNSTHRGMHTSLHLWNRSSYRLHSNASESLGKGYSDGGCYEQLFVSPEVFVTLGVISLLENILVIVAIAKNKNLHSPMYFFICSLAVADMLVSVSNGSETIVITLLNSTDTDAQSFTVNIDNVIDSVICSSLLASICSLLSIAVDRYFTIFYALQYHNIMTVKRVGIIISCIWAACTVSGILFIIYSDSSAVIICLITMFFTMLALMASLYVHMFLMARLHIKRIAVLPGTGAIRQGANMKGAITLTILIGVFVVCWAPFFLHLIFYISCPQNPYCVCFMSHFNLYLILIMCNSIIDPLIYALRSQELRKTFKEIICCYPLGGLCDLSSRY

| EC50 (Melanocortin receptor 4 [1]) [nM] | Ki (Melanocortin receptor 3) [nM] | Ki [2] [nM] | Ki (Melanocortin receptor 4 [3]) [nM] | Emax (Melanocortin receptor 4 [1]) [%] | Structure (SMILES) |
| --- | --- | --- | --- | --- | --- |
| 44 | 1730 | 4520 | 104 | – | CNC(=O)[C@H](Cc1ccc2ccccc2c1)NC(=O)[C@H](CCCN=C(N)N)NC(=O)[C@@H](Cc1ccccc1)NC(=O)[C@H](Cc1ccc(O)cc1)NC(C)=O (Ac-Y[dF]R[2Nal]-NHMe) |
| 193 | 18000 | 12300 | 214 | 100 | CNC(=O)[C@H](Cc1ccc2ccccc2c1)NC(=O)[C@H](CCCN=C(N)N)NC(=O)[C@H](CC[C@H](Cc1ccc(Cl)cc1)NC(C)=O)Cc1ccc(F)cc1 |
| 10 | 1630 | 2280 | 24 | 81 | CNC(=O)[C@H](Cc1ccc2ccccc2c1)NC(=O)[C@H](CCCN=C(N)N)NC(=O)[C@@H](Cc1ccccc1)NC(=O)[C@@H]1Cc2ccccc2CN1 |
| 22 | 468 | 30 | 13 | 89 | N=C(N)NCCC[C@H]1C[C@@H](OCc2ccccc2)CN1C(=O)[C@@H](Cc1ccccc1)NC(=O)C1Cc2ccccc2CN1 (single isomer, unassigned) |
| 38 | 24700 | 8560 | 214 | 90 | CNC(=O)[C@H](Cc1ccc2ccccc2c1)NC(=O)[C@H](CCCN=C(N)N)NC(=O)[C@H](CC[C@H](Cc1ccc(O)cc1)NC(C)=O)Cc1ccccc1 |
| 20 | 55500 | 23400 | 37 | 102 | CNC(=O)[C@H](Cc1ccc2ccccc2c1)NC(=O)[C@H](CCCN=C(N)N)NC(=O)[C@H](CC[C@H](Cc1ccccc1)NC(C)=O)Cc1ccc(F)cc1 |
| 142 | 382 | 71 | 76 | 76 | N=C(N)NCCC[C@H]1C[C@@H](OCc2ccccc2)CN1C(=O)[C@H](CC[C@H]1Cc2ccccc2CN1)Cc1ccccc1 |
| 160 | 2410 | 3990 | 220 | 77 | CNC(=O)[C@H](Cc1ccc2ccccc2c1)NC(=O)[C@H](CCCN=C(N)N)NC(=O)[C@H](CC[C@@H]1Cc2ccccc2CN1)Cc1ccccc1 |
| 10 | 6200 | 22300 | 5 | 91 | CNC(=O)[C@H](Cc1ccc2ccccc2c1)NC(=O)[C@H](CCCN=C(N)N)NC(=O)[C@H](CC[C@H](Cc1ccc(O)cc1)NC(C)=O)Cc1ccc(F)cc1 |
| 8 | 23 | 9 | 10 | 84 | CC(=O)N[C@H](Cc1ccc(O)cc1)C(=O)N[C@H](Cc1ccccc1)C(=O)N1C[C@H](OCc2ccccc2)C[C@@H]1CCCN=C(N)N |
